The inhibition is the drop in the measured response relative to a control, in per cent.

The results in this text go back to patent publication US12508323B2, “Method of treatment of colorectal, breast and lung cancer with metal containing immune agonist complexes” (HANGZHOU XINGAO BIOTECHNOLOGY CO., LTD., priority 2020, dated 2025).

Test [1] relates to colorectal cancer cell line CT26. As to the kind of experiment: Subcutaneous transplantation tumor model, CT26 in BALB/C mice. It counts as in vivo. Particulars: i.p. 10 mg/kg (nanobody 200 μg/mouse) once a day for 21 days. The protocol:
(§1) Specific pathogen free (SPF)-grade BALB/C and C57BL/6 male mice, aged 7-8 weeks and weighing 20-22 g, were purchased from Shanghai Slac Laboratory Animal Co., Ltd (Laboratory animal quality certificate number: SCXK (Shanghai)2007-0005.
(§2) Mice were injected intraperitoneally with the immune agonist or complex with a dose of 10 mg/kg, or each injected intraperitoneally with 200 μg of the nanobody.
(§3) Administration route: intraperitoneal injection.
(§4) Frequency: once a day for consecutive 21 days.
(§5) Cancer cells were cultured, passaged, collected at the logarithmic phase of cells, and prepared into a cell suspension at a concentration of (1.0×10^7) per ml. Mice were injected with 0.2 ml of the cell suspension at the axilla of the right forelimb (cell number 2.0×10^6 cells/each), and were tumorigenic in about 8 days. These mice were randomly divided into 10 groups equally, namely, group A: negative control group (saline group), group B: positive control (cGAMP) group (dose: 10 mg/kg), group C: MncGAMP group (dose: 10 mg/kg), group D: anti-PD-L1 nanobody group, group E: anti-CD47 nanobody group, group F: anti-TfR1 nanobody group, group G: complex V group (dose: 10 mg/kg), group H: complex VI group (dose: 10 mg/kg), group I: complex IX group (dose: 10 mg/kg), and group J: complex VIII group (10 mg/kg). […]
(§6) The data were expressed as ×±s and processed by SPSS10.0 software. […]

Test [2] concerns lung cancer Lewis tumor line LL/2. As to the kind of experiment: Subcutaneous transplantation tumor model, LL/2 in C57BL/6 mice. It counts as in vivo. Particulars: i.p. 10 mg/kg (nanobody 200 μg/mouse) once a day for 21 days. The protocol: as §1, §2, §3, §4, §5, §6
The subject of test [3] is coronavirus (ATCC VR-841). In words: Inhibition of coronavirus replication in PBMCs (fluorescence quantitative RT-PCR). It counts as cell-based. Particulars: PBMC, 504 h, 100 μg/mL drug, 10 μL virus, after three weeks, six samples per group, read-out: Average inhibition rate of coronavirus (%). An excerpt: Peripheral blood mononuclear cells (PBMCs) used herein was purchased from Shanghai Saili biotechnology Co., Ltd, which mainly included lymphocytes (T cells/B cells), monocytes, macrophages, and dendritic cells. Most of PBMCs were lymphocytes. PBMCs were normal primary cells, which belonged to a mixed system.
The virus strain used herein was coronavirus (ATCC VR-841), which was suitable for laboratory use and purchased from ATCC company. It was a bronchopneumonia coronavirus. Virus experiments in this study were performed by virus laboratory of American Animals Inc.
The cultured PBMCs were divided into seven groups (six samples in each group), namely, group A: negative control group (PBMC); group B, PBMC+cGAMP; group C, PBMC+MncGAMP; group D, PBMC+complex VIII; group E, PBMC+complex I; group F, PBMC+complex II; and group G, PBMC+complex III. Except for group A, which was used as a control group without drug addition, all other groups were respectively added with 100 μg/mL of the corresponding drug. Each cell sample was added with 10 μL of virus, and the antiviral status of the different immune agonist complexes were determined after three weeks. The inhibition rate of virus was selected as an evaluation index. The activity titer of the virus was detected by fluorescence quantitative RT-PCR.

For test [4], the system named is dendritic cell DCs and T cells. As to the kind of experiment: Activation of immune cells (flow cytometry of spleen and lung cells). Particulars: 14 days after immunization, mouse spleen and lung tissues. It counts as in vivo, mice. Here is the method:
Mice were raised, immunized with virus infection, and subjected to blood collection, as the same as Example 3. Isotype control nanobody was purchased from eBiosciences; antibody magnetic beads were purchased from Militeny Biotech; and flow cytometer was purchased from BD company. 14 days after immunization, mouse spleen and lung tissues were taken, ground and pounded separately, filtered with a 40-μm filter, and centrifuged at 1000 rpm for 10 min to separate unlysed immune cells. The DC cells (CD40\CD80\CD86\MHCII), T cells and (CD8+) cells were separated by the antibody magnetic beads, and added with the corresponding FAC nanobody (diluted with FACS buffer). As a negative control, the isotype control nanobody was added into the DC cells followed by incubation for 1 h, centrifugation, and rinsing with PBS. After that, the samples were analyzed by the flow cytometry to select the appropriate cells for determination of fluorescence intensity (MFI), and the results were shown in Table 8.

Another test relates to amyloid plaques. As to the kind of experiment: Thioflavin S staining of brain amyloid plaques in AD mice. It counts as in vivo. Particulars: 10 mg/kg i.p., 60 days of administration. Here is the method:
Seven groups of AD mice in the above examples were tested in view of reduction of amyloid plaques in the brains of AD mice after 60 days of administration. The experiment was a thioflavin S staining experiment, and the experimental procedures were described below. 60 days after drug administration, brain tissue of mice was taken, fixed, embedded with paraffin, sectioned, de-waxed with xylene, dehydrated with ethanol gradient, and rinsed with TBS solution three times. After that, 0.3% thioflavin S (dissolved in 50% ethanol) was dropped on the tissue followed by incubation for 10 min at room temperature, rinsing with 50% ethanol three times, rinsing with TBS solution, drying in the shade, and sealing. Then the issue was examined by laser confocal microscopy (Leica, Germany) to detect the changes in the amount of amyloid plaque deposition in the brain of AD mice.

A further test deals with TREM2. In words: TREM2 expression in brain tissues of AD mice. The class given is in vivo. Particulars: 10 mg/kg i.p., 60 days of administration. The text has this: ELISA kits were purchased from Cloud Clone. Flow cytometry nanobodies were purchased from eBiosciences. RT-PCR reagents were purchased from Takara. Immune fluorescence and immune histochemistry nanobodies were purchased from Abcam. Other reagents were purchased from Sigma-Aldrich. Primer synthesis was done by Shanghai Biotechnology Co. Laser confocal microscope was purchased from Leica (Germany). 7500 quantitative PCR instrument was purchased from Applied Biosystems ABI (USA). Light microscope was purchased from Leica (Germany). Enzyme marker was purchased from Hangzhou Aosheng Company. Attune flow cytometer was purchased from Thermo Fisher Scientific. RT-PCR in vitro TREM2 content was determined, and the TREM2 primer sequences were as follows:
Whether mRNA levels of TREM2 in brain tissues of mice were altered after administration of the immune agonist and complexes thereof was determined.

Setting [5] is: vs negative control tumor weight.

Molecules are shown by their SMILES.

With `Nc1nc(=O)c2ncn(C3OC4COP(=O)(O)OC5C(COP(=O)(O)OC3C4O)OC(n3cnc4c(N)ncnc43)C5O)c2[nH]1` (stereo not shown) [cGAMP, 2′3′-cGAMP], the “Average tumor weight” value in test [1] (n = 10, mean ± SD) was 0.784 ± 0.135 g. Besides, in test [1] (setting [5]), the “Average tumor inhibition rate (%)” value is reported as 65.0%. The “Average tumor weight” value in test [2] (n = 10, mean ± SD) is reported as 1.138 ± 0.127 g. Moreover, the “Average tumor inhibition rate (%)” value in test [2] (setting [5]) worked out at 60.0%. Also, the inhibition at 100 µg/mL in test [3] was found to be 25 ± 4%. Further, in test [4], the “CD8 cells (%)” value came to 2.3 ± 0.2%, the “CD40 cells (%)” value was 122.6%, the “CD80 cells (%)” value is 115.5% and the “CD86 cells (%)” value came to 18.3%. Besides, in test [4], the “MHCII cells (%)” value turned out to be 218.4% and the “T cells (%)” value was determined as 0.3 ± 0.2%. For the same compound, the “Average count points of fluorescence intensity of amyloid plaques in brain tissues of AD mice (field of view area)” value with amyloid plaques came out at 1800 ± 160. The “TREM2” value in the test on TREM2 was found to be 55.38 ± 0.27 pg/mg.
